Measured values from article PMC3318891, “Insights into the In Vivo Regulation of Glutamate Dehydrogenase from the Foot Muscle of an Estivating Land Snail” (Enzyme Research, 2012).

What was measured:
Assay type in all cases: biochemical
[1] = tested on: T1, 10 day estivated Otala lactea foot muscle GDH; test: NADH absorbance at […] nm, glutamate-oxidizing direction; settings: activation constant (half-maximal activation, not association constant); suboptimal substrates 10 mM L-glutamate, 0.5 mM NAD+; Tris-HCl pH 8.0
T1 construct: native enzyme purified from foot muscle of 10-day estivated snails on GTP-agarose; high-phosphate form, sites unknown

[2] = tested on: T2, control Otala lactea foot muscle GDH; test: as above; settings: activation constant (half-maximal activation, not association constant); suboptimal substrates 10 mM L-glutamate, 0.5 mM NAD+; Tris-HCl pH 8.0
T2 construct: native enzyme purified from foot muscle of active (control) snails on GTP-agarose; low-phosphate form, sites unknown

[3] = tested on: T2, control Otala lactea foot muscle GDH; test: NADH absorbance at […] nm, glutamate-synthesizing direction; settings: activation constant (half-maximal activation, not association constant); suboptimal substrates 0.2 mM α-ketoglutarate, 0.15 mM NADH, 40 mM NH4Cl; HEPES pH 7.2
[4] = tested on: T2, control Otala lactea foot muscle GDH; test: as above; settings: inhibitor; suboptimal substrates 0.2 mM α-ketoglutarate, 0.15 mM NADH, 40 mM NH4Cl; HEPES pH 7.2
[5] = tested on: T1, 10 day estivated Otala lactea foot muscle GDH; test: as above; settings: inhibitor; suboptimal substrates 0.2 mM α-ketoglutarate, 0.15 mM NADH, 40 mM NH4Cl; HEPES pH 7.2
[6] = tested on: T1, 10 day estivated Otala lactea foot muscle GDH; test: NADH absorbance at […] nm, glutamate-oxidizing direction; settings: no ADP, Tris-HCl pH 8.0
[7] = tested on: T2, control Otala lactea foot muscle GDH; test: as above; settings: no ADP, Tris-HCl pH 8.0
[8] = tested on: T2, control Otala lactea foot muscle GDH; test: NADH absorbance at […] nm, glutamate-synthesizing direction; settings: no ADP, 0.2 mM NADH, HEPES pH 7.2
[9] = tested on: T1, 10 day estivated Otala lactea foot muscle GDH; test: as above; settings: no ADP; optimal co-substrates 100 mM NH4Cl, 0.2 mM NADH; HEPES pH 7.2
[10] = optimal co-substrate 1.5 mM NAD+
[11] = optimal co-substrate 50 mM L-glutamate

## Nc1ncnc2c1ncn2[C@@H]1O[C@H](COP(=O)(O)OP(=O)(O)O)[C@@H](O)[C@H]1O [ADP]
[1]
  EC50: 3.5 ± 0.5 µM
[2]
  EC50: 4.7 ± 0.7 µM

## Nc1ncnc2c1ncn2[C@@H]1O[C@H](COP(=O)(O)O)[C@@H](O)[C@H]1O [AMP]
[3]
  EC50: 270 ± 40 µM

## Nc1ncnc2c1ncn2[C@@H]1O[C@H](COP(=O)(O)OP(=O)(O)OP(=O)(O)O)[C@@H](O)[C@H]1O [ATP]
[4]
  IC50: 7000 ± 1000 µM

## Nc1nc2c(ncn2[C@@H]2O[C@H](COP(=O)(O)OP(=O)(O)OP(=O)(O)O)[C@@H](O)[C@H]2O)c(=O)[nH]1 [GTP]
[5]
  IC50: 0.15 ± 0.02 µM
[4]
  IC50: 0.34 ± 0.02 µM

## N[C@@H](CCC(=O)O)C(=O)O [L-glutamate]
[6]; [10]
  Km: 840 ± 20 µM
[7]; [10]
  Km: 900 ± 20 µM

## NC(=O)c1ccc[n+]([C@@H]2O[C@H](COP(=O)(O)OP(=O)(O)OC[C@H]3O[C@@H](n4cnc5c(N)ncnc54)[C@H](O)[C@@H]3O)[C@@H](O)[C@H]2O)c1 [NAD^+]
[6]; [11]
  Km: 490 ± 20 µM
[7]; [11]
  Km: 590 ± 80 µM

## N [NH4 ^+]
[8]; optimal co-substrates 1 mM α-ketoglutarate
  Km: 63000 ± 2000 µM

## O=C(O)CCC(=O)C(=O)O [α-ketoglutarate]
[9]
  Km: 550 ± 50 µM
[8]; optimal co-substrates 100 mM NH4Cl
  Km: 190 ± 30 µM
